{
  "source": "patent US20210228545A1",
  "about": "“METHODS OF TREATING CONDITIONS RELATED TO THE S1P1 RECEPTOR” (Arena Pharmaceuticals, Inc., priority 2018, published 2021)",
  "key": {"[1]": {"target": "T1, OCT1 (Homo sapiens, UniProt O15245)", "T1 construct": "expressed in transfected cells; host or cells: HEK293", "T1 sequence (O15245 1-554)": "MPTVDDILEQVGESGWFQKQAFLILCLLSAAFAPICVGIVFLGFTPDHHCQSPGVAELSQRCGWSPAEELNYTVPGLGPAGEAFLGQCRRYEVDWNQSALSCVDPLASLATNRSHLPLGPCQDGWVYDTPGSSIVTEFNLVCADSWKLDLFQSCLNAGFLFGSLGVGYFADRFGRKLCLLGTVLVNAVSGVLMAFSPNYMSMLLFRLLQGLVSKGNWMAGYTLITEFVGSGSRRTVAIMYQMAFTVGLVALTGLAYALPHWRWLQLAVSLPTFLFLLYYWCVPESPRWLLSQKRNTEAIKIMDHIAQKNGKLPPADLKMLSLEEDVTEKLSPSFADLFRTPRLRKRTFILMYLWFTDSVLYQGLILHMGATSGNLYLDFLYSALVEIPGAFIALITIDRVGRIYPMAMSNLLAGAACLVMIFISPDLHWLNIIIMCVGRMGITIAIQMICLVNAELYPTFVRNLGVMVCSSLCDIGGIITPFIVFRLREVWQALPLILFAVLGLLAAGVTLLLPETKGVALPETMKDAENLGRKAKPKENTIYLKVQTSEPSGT", "experiment": "Transporter substrate evaluation, HEK293 cells", "assay_type": "in vitro ADME", "details": "1 and 10 μM"}, "[2]": {"target": "P-gp (Homo sapiens, UniProt P08183)", "sequence (P08183 whole entry)": "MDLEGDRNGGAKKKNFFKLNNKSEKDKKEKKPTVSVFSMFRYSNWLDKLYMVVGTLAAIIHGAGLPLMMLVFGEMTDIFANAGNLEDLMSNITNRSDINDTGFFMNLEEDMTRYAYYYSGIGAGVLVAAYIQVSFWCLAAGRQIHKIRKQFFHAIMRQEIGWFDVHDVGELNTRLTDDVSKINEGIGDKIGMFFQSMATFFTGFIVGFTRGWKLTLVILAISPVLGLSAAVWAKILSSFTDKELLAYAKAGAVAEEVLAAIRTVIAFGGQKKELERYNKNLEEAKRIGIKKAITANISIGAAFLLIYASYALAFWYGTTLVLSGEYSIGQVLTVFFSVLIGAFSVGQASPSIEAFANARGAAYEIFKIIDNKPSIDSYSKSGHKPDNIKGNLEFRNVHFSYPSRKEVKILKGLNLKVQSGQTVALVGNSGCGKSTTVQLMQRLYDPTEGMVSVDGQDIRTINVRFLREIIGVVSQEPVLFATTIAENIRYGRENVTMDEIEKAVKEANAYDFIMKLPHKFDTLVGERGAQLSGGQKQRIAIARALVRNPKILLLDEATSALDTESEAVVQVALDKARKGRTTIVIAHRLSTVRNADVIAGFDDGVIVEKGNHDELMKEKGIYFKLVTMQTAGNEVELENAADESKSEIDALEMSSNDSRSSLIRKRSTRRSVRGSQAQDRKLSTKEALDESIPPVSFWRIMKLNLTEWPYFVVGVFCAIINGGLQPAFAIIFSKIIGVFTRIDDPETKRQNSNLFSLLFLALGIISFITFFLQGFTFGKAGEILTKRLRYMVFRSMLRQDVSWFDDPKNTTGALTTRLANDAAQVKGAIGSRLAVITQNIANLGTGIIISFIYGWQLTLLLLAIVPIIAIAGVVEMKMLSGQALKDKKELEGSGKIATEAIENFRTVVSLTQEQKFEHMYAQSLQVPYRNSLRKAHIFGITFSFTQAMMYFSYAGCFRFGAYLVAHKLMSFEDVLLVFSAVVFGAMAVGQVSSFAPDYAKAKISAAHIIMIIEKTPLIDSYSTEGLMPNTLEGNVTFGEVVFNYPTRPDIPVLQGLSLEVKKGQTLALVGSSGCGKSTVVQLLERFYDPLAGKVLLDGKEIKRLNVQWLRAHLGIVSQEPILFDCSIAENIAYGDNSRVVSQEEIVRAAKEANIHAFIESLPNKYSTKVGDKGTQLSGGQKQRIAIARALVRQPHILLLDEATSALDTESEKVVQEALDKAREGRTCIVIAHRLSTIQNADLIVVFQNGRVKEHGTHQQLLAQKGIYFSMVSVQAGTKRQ", "experiment": "Transporter substrate evaluation, MDCKII-P-gp cells", "assay_type": "in vitro ADME", "parameters": "expressed in transfected cells; host or cells: MDCKII (Madin-Darby canine kidney) cells"}, "[3]": {"test_system": "CYP3A4", "experiment": "CYP induction in cultured human hepatocytes", "assay_type": "in vitro ADME", "details": "criteria >2-fold mRNA increase and ≥20% of positive control"}, "[4]": {"target": "T2, OATP1B1 (Homo sapiens, UniProt Q9Y6L6)", "T2 sequence (Q9Y6L6 1-691)": "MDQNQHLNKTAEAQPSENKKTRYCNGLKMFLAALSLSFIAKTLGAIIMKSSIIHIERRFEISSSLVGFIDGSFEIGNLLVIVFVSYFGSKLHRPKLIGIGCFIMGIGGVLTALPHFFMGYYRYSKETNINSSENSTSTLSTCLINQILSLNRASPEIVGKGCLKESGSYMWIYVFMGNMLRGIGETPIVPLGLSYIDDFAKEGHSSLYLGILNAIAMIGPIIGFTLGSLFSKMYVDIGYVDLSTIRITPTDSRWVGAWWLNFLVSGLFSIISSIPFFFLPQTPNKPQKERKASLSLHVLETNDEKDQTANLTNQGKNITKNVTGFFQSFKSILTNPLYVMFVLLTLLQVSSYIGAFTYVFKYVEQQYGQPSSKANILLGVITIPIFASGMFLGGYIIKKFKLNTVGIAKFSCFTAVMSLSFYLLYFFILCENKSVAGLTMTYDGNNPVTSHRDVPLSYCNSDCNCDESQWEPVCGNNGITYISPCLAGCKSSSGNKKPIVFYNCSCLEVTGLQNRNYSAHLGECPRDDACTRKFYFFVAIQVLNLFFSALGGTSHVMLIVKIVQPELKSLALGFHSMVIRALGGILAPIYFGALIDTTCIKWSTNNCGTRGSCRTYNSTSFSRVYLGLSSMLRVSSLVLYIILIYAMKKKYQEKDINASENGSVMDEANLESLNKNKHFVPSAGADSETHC"}, "[5]": {"target": "T1, OCT1", "experiment": "Transporter inhibition, HEK293 cells", "assay_type": "in vitro ADME"}, "[6]": {"target": "T3, OAT1 (Homo sapiens, UniProt Q4U2R8)", "T3 construct": "expressed in transfected cells; host or cells: HEK293", "T3 sequence (Q4U2R8 1-563)": "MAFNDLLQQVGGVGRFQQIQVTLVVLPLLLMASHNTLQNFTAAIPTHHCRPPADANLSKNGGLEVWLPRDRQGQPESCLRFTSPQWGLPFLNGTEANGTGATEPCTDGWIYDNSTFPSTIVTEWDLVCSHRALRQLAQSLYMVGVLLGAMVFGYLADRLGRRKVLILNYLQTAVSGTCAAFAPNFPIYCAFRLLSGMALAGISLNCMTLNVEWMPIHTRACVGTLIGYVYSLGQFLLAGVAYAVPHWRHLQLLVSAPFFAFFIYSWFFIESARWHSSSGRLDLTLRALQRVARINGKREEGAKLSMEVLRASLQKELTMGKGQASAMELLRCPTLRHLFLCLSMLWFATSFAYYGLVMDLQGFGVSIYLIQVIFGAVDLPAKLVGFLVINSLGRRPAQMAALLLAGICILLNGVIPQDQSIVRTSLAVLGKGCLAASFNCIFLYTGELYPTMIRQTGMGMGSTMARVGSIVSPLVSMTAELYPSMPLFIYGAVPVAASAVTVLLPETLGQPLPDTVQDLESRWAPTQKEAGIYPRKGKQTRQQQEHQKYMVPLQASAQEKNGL", "experiment": "Transporter substrate evaluation, HEK293 cells", "assay_type": "in vitro ADME", "details": "1 and 10 μM"}, "[7]": {"target": "T4, OCT2 (Homo sapiens, UniProt O15244)", "T4 construct": "expressed in transfected cells; host or cells: HEK293", "T4 sequence (O15244 1-555)": "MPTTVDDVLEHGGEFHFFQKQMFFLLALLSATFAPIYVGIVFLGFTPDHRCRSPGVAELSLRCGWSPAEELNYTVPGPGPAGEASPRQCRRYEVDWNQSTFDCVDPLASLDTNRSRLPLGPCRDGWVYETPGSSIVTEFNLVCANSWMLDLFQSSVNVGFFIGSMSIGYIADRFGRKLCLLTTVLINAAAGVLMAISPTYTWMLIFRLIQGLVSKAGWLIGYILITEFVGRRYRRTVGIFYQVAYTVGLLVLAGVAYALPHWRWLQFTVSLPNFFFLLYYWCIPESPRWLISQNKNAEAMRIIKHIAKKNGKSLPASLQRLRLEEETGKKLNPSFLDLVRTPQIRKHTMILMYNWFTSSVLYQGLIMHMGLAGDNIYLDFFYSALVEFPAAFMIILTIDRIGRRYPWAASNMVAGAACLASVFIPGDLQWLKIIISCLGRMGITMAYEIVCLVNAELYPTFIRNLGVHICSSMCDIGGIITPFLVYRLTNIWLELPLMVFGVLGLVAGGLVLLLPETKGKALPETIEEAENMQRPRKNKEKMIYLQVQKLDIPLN", "experiment": "Transporter substrate evaluation, HEK293 cells", "assay_type": "in vitro ADME", "details": "1 and 10 μM"}},
  "note": "Entries after “also recorded” stand apart in the source; their conditions may differ.",
  "data": [
    {"smiles": "O=C(O)C[C@H]1CCc2c1[nH]c1ccc(OCc3ccc(C4CCCC4)c(C(F)(F)F)c3)cc21", "note": "[Compound 1, (R)-2-(7-(4-cyclopentyl-3-(trifluoromethyl)benzyloxy)-1,2,3,4-tetrahydrocyclopenta[b]indol-3-yl)acetic acid]", "values": [
      {"measurement": "Potential substrate of OCT1", "setting": "[1]; HEK293 cells", "result": "not a substrate of OCT1 and not a substrate and No"},
      {"measurement": "Uptake ratio into OCT1-expressing cells", "setting": "[1]; absence and presence of quinidine (100 μM)", "result": "below two"},
      {"measurement": "efflux ratio at 1 μM", "setting": "[2]; MDCK-MDR1, 1 μM", "result": 1.12},
      {"measurement": "efflux ratio at 10 μM", "setting": "[2]; MDCK-MDR1, 10 μM", "result": 3.17},
      {"measurement": "recovery", "setting": "[2]; MDCK-MDR1, MDCKII-P-gp assay", "result": "18 to 60", "unit": "%"},
      {"measurement": "Induction potential for CYP3A4", "setting": "[3]", "result": "no induction potential; also recorded: not a potential inducer"},
      {"measurement": "IC50", "setting": "[4]", "result": "~10", "unit": "µM"},
      {"measurement": "Reduction of uptake rate of tetraethylammonium bromide into OCT1-expressing cells (inhibition)", "setting": "[5]; 1 and 10 μM", "result": "less than 50%"},
      {"measurement": "IC50", "setting": "[5]; HEK293 cells, [14C]-tetraethylammonium bromide (5 μM), 1 and 10 μM tested", "result": "> 10", "unit": "µM"},
      {"measurement": "Potential substrate of OAT1", "setting": "[6]; HEK293 cells", "result": "not a substrate of OAT1 and not a substrate and No"},
      {"measurement": "Uptake ratio into OAT1-expressing cells", "setting": "[6]; absence and presence of probenecid (100 μM)", "result": "less than two"},
      {"measurement": "Potential substrate of OCT2", "setting": "[7]; HEK293 cells", "result": "not a substrate of OCT2 and not a substrate and No"},
      {"measurement": "Uptake ratio into OCT2-expressing cells", "setting": "[7]; absence and presence of quinidine (300 μM)", "result": "below two"}
    ]}
  ]
}
